Test results reported in ChEMBL document CHEMBL1909046, “DrugMatrix in vitro pharmacology data”.

Columns and labels:
[1] = target: Aldo-keto reductase family 1 member B1 (Rattus norvegicus, UniProt P07943); assay type: tissue-based, Lens of camera-type eye;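 further: inhibition of aldose reductase enzyme activity, measured with DL-glyceraldehyde as the substrate; in other assays of this panel Not Active means under 50% inhibition at 10 µM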
[2] = target: T1, Type-2 angiotensin II receptor (Homo sapiens, UniProt P50052); assay type: cell-based; conditions: cho-k1; further: in other assays of this panel Not Active means under 50% inhibition at 10 µM
T1 sequence (P50052 whole entry): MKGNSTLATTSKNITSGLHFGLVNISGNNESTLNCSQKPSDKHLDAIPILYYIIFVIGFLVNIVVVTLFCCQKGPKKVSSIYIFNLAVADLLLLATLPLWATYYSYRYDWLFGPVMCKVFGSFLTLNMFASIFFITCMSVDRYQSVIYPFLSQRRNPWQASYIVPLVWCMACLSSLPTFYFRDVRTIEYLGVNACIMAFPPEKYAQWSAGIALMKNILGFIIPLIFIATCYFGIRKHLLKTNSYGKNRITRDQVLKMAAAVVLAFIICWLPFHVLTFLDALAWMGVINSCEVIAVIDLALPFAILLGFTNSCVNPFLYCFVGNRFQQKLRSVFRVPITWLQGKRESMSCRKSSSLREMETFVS

[3] = DRUGMATRIX: Calcium Channel Type L, Benzothiazepine radioligand binding (ligand: [3H] Diltiazem); assay type: cell membranes, Rattus norvegicus, Wistar, Brain, Membrane; conditions: Not Active = under 50% inhibition at 10 µM
Substance-K receptor = target: T2, Substance-K receptor (Homo sapiens, UniProt P21452); assay type: cell membranes, CHO, Membrane; conditions: cho; further: in other assays of this panel Not Active means under 50% inhibition at 10 µM
T2 sequence (P21452 whole entry): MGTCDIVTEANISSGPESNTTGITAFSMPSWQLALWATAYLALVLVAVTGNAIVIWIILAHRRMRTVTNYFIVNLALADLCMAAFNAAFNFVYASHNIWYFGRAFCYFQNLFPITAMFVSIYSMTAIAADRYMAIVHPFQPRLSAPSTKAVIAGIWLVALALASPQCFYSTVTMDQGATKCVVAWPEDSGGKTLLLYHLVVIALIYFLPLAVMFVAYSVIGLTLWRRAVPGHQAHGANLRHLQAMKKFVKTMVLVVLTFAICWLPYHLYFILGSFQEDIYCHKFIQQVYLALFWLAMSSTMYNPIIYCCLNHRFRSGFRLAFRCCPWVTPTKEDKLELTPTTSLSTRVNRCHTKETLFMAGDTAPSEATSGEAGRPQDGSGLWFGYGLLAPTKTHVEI

[4] = target: T3, C-C chemokine receptor type 4 (Homo sapiens, UniProt P51679); assay type: cell membranes, Membrane; conditions: chem-1; further: in other assays of this panel Not Active means under 50% inhibition at 10 µM
T3 sequence (P51679 whole entry): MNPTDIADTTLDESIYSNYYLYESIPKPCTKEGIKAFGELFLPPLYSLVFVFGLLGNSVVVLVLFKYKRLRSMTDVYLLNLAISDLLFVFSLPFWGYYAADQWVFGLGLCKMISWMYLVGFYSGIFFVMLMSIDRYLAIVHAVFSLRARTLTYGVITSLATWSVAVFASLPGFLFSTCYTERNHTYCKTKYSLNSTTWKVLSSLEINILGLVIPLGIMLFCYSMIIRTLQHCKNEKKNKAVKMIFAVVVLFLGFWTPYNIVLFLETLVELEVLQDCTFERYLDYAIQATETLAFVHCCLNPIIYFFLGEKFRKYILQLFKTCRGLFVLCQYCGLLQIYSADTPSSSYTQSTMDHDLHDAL

[5] = DRUGMATRIX: Glutamate, NMDA, Agonism radioligand binding (ligand: [3H] CGP-39653); assay type: cell membranes, Rattus norvegicus, Wistar, Cerebral cortex, Membrane; conditions: Not Active = under 50% inhibition at 10 µM
[6] = DRUGMATRIX: Glutamate, NMDA, Phencyclidine radioligand binding (ligand: [3H] TCP); assay type: cell membranes, Rattus norvegicus, Wistar, Cerebral cortex, Membrane; conditions: Not Active = under 50% inhibition at 10 µM
[7] = target: T4, Neuropeptide Y receptor type 1 (Homo sapiens, UniProt P25929); assay type: cell membranes, Membrane; conditions: sk-n-mc; further: in other assays of this panel Not Active means under 50% inhibition at 10 µM
T4 sequence (P25929 whole entry): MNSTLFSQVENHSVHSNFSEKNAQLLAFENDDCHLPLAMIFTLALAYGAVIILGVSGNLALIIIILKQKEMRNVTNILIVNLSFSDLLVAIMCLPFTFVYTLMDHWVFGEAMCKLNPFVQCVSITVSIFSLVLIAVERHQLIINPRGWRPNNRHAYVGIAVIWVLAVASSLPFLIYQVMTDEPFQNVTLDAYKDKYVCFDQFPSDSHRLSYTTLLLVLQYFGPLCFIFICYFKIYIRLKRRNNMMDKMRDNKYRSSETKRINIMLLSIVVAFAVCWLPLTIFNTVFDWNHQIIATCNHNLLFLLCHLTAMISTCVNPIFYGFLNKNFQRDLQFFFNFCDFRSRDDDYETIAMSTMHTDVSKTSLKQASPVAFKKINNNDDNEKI

[8] = DRUGMATRIX: Platelet-Derived Growth Factor (PDGF) radioligand binding (ligand: [125I] PDGF); assay type: cell-based; conditions: nih3t3; Not Active = under 50% inhibition at 10 µM
[9] = target: Mitogen-activated protein kinase 3 (Homo sapiens, UniProt P27361); assay: DRUGMATRIX: Protein Serine/Threonine Kinase, ERK1 enzyme inhibition (substrate: Myelin Basic Protein); parameters: species or system Escherichia coli; conditions: Not Active = under 50% inhibition at 10 µM
Chain of Mitogen-activated protein kinase 3 (P27361 whole entry): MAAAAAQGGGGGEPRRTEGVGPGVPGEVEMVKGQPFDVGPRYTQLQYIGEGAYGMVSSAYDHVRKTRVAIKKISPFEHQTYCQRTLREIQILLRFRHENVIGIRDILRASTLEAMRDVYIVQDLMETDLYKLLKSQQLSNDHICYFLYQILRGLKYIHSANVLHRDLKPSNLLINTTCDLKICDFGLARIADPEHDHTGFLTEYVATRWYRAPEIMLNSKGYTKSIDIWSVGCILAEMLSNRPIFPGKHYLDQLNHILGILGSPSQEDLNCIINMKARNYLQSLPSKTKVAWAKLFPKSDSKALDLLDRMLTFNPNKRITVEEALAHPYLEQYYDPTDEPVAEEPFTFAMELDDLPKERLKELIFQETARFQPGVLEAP

[10] = target: Mitogen-activated protein kinase 1 (Homo sapiens, UniProt P28482); assay: DRUGMATRIX: Protein Serine/Threonine Kinase, ERK2 enzyme inhibition (substrate: Myelin Basic Protein); parameters: species or system Escherichia coli; conditions: Not Active = under 50% inhibition at 10 µM
Chain of Mitogen-activated protein kinase 1 (P28482 whole entry): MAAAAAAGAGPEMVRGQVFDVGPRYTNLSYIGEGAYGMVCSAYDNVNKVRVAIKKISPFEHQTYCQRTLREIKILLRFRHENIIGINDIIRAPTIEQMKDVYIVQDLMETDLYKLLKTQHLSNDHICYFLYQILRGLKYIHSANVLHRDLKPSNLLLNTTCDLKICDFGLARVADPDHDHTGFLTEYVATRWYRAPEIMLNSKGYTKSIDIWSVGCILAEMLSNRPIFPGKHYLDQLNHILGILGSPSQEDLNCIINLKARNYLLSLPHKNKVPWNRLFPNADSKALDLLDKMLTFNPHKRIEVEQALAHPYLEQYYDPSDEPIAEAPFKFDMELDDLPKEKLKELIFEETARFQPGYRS

[11] = target: Tyrosine-protein kinase Fyn (Homo sapiens, UniProt P06241); assay: biochemical; assay type: cell-based, Insect cells; conditions: insect cells
Chain of Tyrosine-protein kinase Fyn (P06241 whole entry): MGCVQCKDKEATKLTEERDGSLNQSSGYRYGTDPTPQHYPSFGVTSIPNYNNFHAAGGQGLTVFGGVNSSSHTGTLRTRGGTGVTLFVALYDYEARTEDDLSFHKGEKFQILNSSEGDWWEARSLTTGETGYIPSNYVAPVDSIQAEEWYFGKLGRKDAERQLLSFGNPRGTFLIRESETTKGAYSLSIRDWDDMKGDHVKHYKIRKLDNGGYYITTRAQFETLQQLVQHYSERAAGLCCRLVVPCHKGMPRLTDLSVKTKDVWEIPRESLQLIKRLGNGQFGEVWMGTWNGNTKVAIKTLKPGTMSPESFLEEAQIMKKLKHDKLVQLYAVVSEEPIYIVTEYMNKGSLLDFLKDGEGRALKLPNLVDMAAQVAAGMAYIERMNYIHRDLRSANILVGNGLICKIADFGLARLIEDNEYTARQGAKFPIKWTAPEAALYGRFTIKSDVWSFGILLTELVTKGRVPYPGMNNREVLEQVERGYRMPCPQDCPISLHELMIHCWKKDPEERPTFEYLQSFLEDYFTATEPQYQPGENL

Acetylcholinesterase = Acetylcholinesterase (Homo sapiens, UniProt P22303); assay: DRUGMATRIX: Acetylcholinesterase enzyme inhibition (substrate: acetylthiocholine); assay type: cell-based, HEK293; conditions: hek293; Not Active = under 50% inhibition at 10 µM
Chain of Acetylcholinesterase (P22303 whole entry): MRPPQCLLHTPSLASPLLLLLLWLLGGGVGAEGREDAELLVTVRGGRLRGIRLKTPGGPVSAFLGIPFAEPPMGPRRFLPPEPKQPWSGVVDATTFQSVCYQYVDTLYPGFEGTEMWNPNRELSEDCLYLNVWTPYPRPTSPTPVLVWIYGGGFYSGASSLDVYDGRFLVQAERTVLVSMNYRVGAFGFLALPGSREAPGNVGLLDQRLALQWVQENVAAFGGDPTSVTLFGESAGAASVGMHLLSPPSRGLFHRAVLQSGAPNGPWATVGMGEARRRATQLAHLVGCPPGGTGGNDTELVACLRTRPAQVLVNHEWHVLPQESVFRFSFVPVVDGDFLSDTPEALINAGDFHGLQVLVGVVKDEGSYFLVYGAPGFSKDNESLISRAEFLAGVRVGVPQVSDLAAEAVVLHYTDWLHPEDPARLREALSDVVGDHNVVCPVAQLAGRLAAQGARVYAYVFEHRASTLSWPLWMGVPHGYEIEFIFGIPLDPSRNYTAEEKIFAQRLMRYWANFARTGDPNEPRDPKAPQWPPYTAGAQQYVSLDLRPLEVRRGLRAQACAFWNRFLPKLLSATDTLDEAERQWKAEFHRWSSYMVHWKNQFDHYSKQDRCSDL

Cytochrome P450 3A4 = Cytochrome P450 3A4 (Homo sapiens, UniProt P08684); conditions: bti-tn-5b1-4; further: in other assays of this panel Not Active means under 50% inhibition at 10 µM
Chain of Cytochrome P450 3A4 (P08684 whole entry): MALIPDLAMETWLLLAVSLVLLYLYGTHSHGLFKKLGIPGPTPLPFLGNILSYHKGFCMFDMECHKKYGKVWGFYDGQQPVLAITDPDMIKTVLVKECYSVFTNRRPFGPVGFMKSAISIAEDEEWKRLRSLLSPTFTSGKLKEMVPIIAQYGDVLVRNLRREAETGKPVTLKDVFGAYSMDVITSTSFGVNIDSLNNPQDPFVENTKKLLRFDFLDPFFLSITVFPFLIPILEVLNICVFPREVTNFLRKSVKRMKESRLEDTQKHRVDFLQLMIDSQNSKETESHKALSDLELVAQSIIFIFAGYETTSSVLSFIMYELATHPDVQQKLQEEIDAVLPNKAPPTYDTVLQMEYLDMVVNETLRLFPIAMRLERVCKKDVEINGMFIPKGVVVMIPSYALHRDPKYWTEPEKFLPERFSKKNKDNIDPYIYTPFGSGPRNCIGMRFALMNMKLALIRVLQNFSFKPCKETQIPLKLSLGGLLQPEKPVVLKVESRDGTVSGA

[12] = target: Voltage-gated inwardly rectifying potassium channel KCNH2 (Homo sapiens, UniProt Q12809); conditions: hek293; further: in other assays of this panel Not Active means under 50% inhibition at 10 µM
Chain of Voltage-gated inwardly rectifying potassium channel KCNH2 (Q12809 whole entry): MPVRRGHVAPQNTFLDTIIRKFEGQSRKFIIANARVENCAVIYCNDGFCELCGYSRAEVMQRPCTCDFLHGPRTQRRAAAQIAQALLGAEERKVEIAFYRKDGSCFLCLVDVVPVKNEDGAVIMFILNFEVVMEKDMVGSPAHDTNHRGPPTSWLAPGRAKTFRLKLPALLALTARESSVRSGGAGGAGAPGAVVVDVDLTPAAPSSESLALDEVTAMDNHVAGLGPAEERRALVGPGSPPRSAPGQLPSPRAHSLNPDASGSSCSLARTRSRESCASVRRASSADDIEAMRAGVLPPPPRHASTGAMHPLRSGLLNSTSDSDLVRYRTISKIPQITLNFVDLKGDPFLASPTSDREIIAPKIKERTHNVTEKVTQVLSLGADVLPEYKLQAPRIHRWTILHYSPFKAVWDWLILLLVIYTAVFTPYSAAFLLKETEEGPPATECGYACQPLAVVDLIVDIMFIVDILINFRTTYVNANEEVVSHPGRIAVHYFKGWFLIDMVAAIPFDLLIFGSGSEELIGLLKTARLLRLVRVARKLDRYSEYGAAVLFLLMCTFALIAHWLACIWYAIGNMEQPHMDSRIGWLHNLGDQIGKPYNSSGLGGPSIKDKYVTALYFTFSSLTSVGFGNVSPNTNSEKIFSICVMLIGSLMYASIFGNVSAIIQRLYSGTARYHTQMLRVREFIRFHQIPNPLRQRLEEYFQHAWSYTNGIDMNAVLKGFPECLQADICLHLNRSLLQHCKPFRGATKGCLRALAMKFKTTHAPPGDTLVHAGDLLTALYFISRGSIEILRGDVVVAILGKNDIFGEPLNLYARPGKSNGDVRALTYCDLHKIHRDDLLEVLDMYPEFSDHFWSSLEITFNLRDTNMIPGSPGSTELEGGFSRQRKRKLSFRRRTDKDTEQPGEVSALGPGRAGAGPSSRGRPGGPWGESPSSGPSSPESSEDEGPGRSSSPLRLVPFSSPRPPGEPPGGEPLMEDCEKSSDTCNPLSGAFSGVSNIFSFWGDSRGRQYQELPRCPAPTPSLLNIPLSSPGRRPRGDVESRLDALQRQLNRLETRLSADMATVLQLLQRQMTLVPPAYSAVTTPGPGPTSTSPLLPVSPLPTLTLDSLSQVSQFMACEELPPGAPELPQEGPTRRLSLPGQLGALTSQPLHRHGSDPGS

NCC1(CC(=O)O)CCCCC1 [GABAPENTIN]
Not Active: IC50 [1] | IC50 [2] | IC50 [3] | Ki [3] | IC50 (Substance-K receptor) | IC50 [4] | IC50 [5] | Ki [5] | IC50 [6] | Ki [6] | IC50 [7] | IC50 [8] | Ki [8] | IC50 [9] | IC50 [10] | IC50 [11] | IC50 (Acetylcholinesterase) | IC50 (Cytochrome P450 3A4) | Ki (Cytochrome P450 3A4) | IC50 [12] | Ki [12]

CC[N+](CC)(CC)CCOc1cccc(OCC[N+](CC)(CC)CC)c1OCC[N+](CC)(CC)CC.[I-].[I-].[I-] [GALLAMINE TRIETHIODIDE]
Not Active: IC50 [1] | IC50 [2] | IC50 [3] | Ki [3] | IC50 (Substance-K receptor) | IC50 [4] | IC50 [5] | Ki [5] | IC50 [6] | Ki [6] | IC50 [7] | IC50 [8] | Ki [8] | IC50 [9] | IC50 [10] | IC50 [11] | IC50 (Acetylcholinesterase) | IC50 (Cytochrome P450 3A4) | Ki (Cytochrome P450 3A4) | IC50 [12] | Ki [12]

Nc1nc2c(ncn2COC(CO)CO)c(=O)[nH]1 [GANCICLOVIR]
Not Active: IC50 [1] | IC50 [2] | IC50 [3] | Ki [3] | IC50 (Substance-K receptor) | IC50 [4] | IC50 [5] | Ki [5] | IC50 [6] | Ki [6] | IC50 [7] | IC50 [8] | Ki [8] | IC50 [9] | IC50 [10] | IC50 [11] | IC50 (Acetylcholinesterase) | IC50 (Cytochrome P450 3A4) | Ki (Cytochrome P450 3A4) | IC50 [12] | Ki [12]

COc1c(N2CCNC(C)C2)c(F)cc2c(=O)c(C(=O)O)cn(C3CC3)c12 (stereo not drawn) [GATIFLOXACIN]
Not Active: IC50 [1] | IC50 [2] | IC50 [3] | Ki [3] | IC50 (Substance-K receptor) | IC50 [4] | IC50 [5] | Ki [5] | IC50 [6] | Ki [6] | IC50 [7] | IC50 [8] | Ki [8] | IC50 [9] | IC50 [10] | IC50 [11] | IC50 (Acetylcholinesterase) | IC50 (Cytochrome P450 3A4) | Ki (Cytochrome P450 3A4) | IC50 [12] | Ki [12]

CC1(C)[C@@H](O[C@H]2O[C@H](C(=O)O)[C@@H](O)[C@H](O)[C@H]2O[C@@H]2O[C@H](C(=O)O)[C@@H](O)[C@H](O)[C@H]2O)CC[C@]2(C)[C@H]3C(=O)C=C4[C@@H]5C[C@@](C)(C(=O)O)CC[C@]5(C)CC[C@@]4(C)[C@]3(C)CC[C@@H]12 [GLYCYRRHIZIN]
Not Active: IC50 [1] | IC50 [2] | IC50 [3] | Ki [3] | IC50 (Substance-K receptor) | IC50 [4] | IC50 [5] | Ki [5] | IC50 [6] | Ki [6] | IC50 [7] | IC50 [8] | Ki [8] | IC50 [9] | IC50 [10] | IC50 [11] | IC50 (Acetylcholinesterase) | IC50 (Cytochrome P450 3A4) | Ki (Cytochrome P450 3A4) | IC50 [12] | Ki [12]

COC1=CC(=O)C[C@@H](C)[C@]12Oc1c(Cl)c(OC)cc(OC)c1C2=O [GRISEOFULVIN]
Not Active: IC50 [1] | IC50 [2] | IC50 [3] | Ki [3] | IC50 (Substance-K receptor) | IC50 [4] | IC50 [5] | Ki [5] | IC50 [6] | Ki [6] | IC50 [7] | IC50 [8] | Ki [8] | IC50 [9] | IC50 [10] | IC50 [11] | IC50 (Acetylcholinesterase) | IC50 (Cytochrome P450 3A4) | Ki (Cytochrome P450 3A4) | IC50 [12] | Ki [12]

NS(=O)(=O)c1cc2c(cc1Cl)NCNS2(=O)=O [HYDROCHLOROTHIAZIDE]
Not Active: IC50 [1] | IC50 [2] | IC50 [3] | Ki [3] | IC50 (Substance-K receptor) | IC50 [4] | IC50 [5] | Ki [5] | IC50 [6] | Ki [6] | IC50 [7] | IC50 [8] | Ki [8] | IC50 [9] | IC50 [10] | IC50 [11] | IC50 (Acetylcholinesterase) | IC50 (Cytochrome P450 3A4) | Ki (Cytochrome P450 3A4) | IC50 [12] | Ki [12]

CN1CCC[C@H]1c1cccnc1 [NICOTINE]
Not Active: IC50 [1] | IC50 [2] | IC50 [3] | Ki [3] | IC50 (Substance-K receptor) | IC50 [4] | IC50 [5] | Ki [5] | IC50 [6] | Ki [6] | IC50 [7] | IC50 [8] | Ki [8] | IC50 [9] | IC50 [10] | IC50 [11] | IC50 (Acetylcholinesterase) | IC50 (Cytochrome P450 3A4) | Ki (Cytochrome P450 3A4) | IC50 [12] | Ki [12]
